This is an account of results in ChEMBL document CHEMBL1125693, “Synthesis and biological activity of new halo-steroidal antiestrogens” (J Med Chem, 1991).

Experiment [1] deals with T1, Estrogen receptor (Mus musculus) (UniProt O08537+P19785). The experiment in a line: Inhibition of estradiol-induced uterine weight gain in ovariectomized BALB/c mice at 3 ug dose twice daily. The class given is functional.
The target in experiment [2] is T1, Estrogen receptor (Mus musculus). The experiment in a line: Inhibition of estradiol-induced uterine weight gain in ovariectomized BALB/c mice at 20 ug dose twice daily. The class given is functional.

T1 sequence (O08537 whole entry, looked up): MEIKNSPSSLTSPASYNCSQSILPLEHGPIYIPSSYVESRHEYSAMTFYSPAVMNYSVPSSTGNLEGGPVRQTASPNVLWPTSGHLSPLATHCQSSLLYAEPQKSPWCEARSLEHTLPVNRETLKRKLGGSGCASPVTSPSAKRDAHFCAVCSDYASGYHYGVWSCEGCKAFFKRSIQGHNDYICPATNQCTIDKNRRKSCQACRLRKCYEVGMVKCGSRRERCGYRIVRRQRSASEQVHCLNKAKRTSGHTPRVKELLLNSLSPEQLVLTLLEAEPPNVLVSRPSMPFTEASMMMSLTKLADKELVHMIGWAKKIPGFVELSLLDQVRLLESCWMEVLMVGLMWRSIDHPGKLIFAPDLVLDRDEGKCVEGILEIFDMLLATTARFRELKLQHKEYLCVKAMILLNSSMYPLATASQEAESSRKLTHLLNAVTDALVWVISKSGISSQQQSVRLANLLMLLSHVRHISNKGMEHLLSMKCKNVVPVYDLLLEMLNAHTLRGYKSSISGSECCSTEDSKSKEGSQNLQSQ
T1 sequence (P19785 whole entry, looked up): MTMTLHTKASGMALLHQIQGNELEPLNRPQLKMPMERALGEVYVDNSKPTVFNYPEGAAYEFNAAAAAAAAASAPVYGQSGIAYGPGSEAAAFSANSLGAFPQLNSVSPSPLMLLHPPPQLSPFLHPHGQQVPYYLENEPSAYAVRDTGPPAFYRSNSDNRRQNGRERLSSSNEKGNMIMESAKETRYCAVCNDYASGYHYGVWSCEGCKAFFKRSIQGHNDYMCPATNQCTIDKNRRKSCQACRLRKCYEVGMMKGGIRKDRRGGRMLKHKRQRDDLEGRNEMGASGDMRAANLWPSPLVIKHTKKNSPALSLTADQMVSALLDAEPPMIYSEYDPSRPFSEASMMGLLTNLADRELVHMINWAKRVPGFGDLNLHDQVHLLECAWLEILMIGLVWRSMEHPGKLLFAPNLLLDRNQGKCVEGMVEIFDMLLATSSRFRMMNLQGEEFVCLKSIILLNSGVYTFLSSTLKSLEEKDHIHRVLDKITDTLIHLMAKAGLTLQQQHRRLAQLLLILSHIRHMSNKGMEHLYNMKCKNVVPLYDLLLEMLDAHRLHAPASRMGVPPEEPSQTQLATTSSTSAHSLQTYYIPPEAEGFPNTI

On to `CCCCN(C)C(=O)CCCCCCCCCC[C@@H]1Cc2cc(O)ccc2[C@H]2CC[C@]3(C)[C@H](O)[C@H](Cl)C[C@H]3[C@H]12`, for which, in experiment [1], the inhibition was 35%.

In the case of `CCCCN(C)C(=O)CCCCCCCCCC[C@@H]1Cc2cc(O)ccc2[C@H]2CC[C@]3(C)[C@H](O)[C@H](Br)C[C@H]3[C@H]12`, the inhibition in experiment [1] was 60%; in experiment [2] it was 78%.

Turning to `CCCCN(C)C(=O)CCCCCCCCCC[C@@H]1Cc2cc(O)ccc2[C@H]2CC[C@]3(C)[C@@H](O)[C@H](Br)C[C@H]3[C@H]12`, the inhibition is 52% in experiment [1] and 79% in experiment [2].

Take `CCCCN(C)C(=O)CCCCCCCCCC[C@@H]1Cc2cc(O)ccc2[C@H]2CC[C@]3(C)[C@@H](O)[C@H](I)C[C@H]3[C@H]12`: the inhibition in experiment [1] was determined as 63%.

On to `CCCCN(C)C(=O)CCCCCCCCCC[C@@H]1Cc2cc(O)ccc2[C@H]2CC[C@]3(C)[C@@H](O)CC[C@H]3[C@H]12`, for which the inhibition in experiment [1] was 40%.

In the case of `CCCCN(C)C(=O)CCCCCCCCCC[C@@H]1Cc2cc(O)ccc2[C@H]2CC[C@]3(C)[C@@H](O)[C@H](Cl)C[C@H]3[C@H]12`, the inhibition in experiment [1] came to 74%.
